Results published in article PMC9698730 (Molecules, 2022).
“Also recorded” adds a separate entry of the source.

Key:
Assay type in all cases: binding, SARS-CoV-2
R88A = system: R88A
R149A = system: R149A
H145A = system: H145A
NTD mutants = system: NTD mutants

Molecule | Mutations SPR (% Inhibition/NTD wt) (R88A) | Mutations SPR (% Inhibition/NTD wt) (R149A) | Mutations SPR (% Inhibition/NTD wt) (H145A) | effect of NTD mutations on SPR signal, in words (NTD mutants)
COc1ccc2cc([C@H](C)C(=O)O)ccc2c1 [Naproxen, naproxen] | R88 (55%), R149 (44%) | R88 (55%), R149 (44%) | – | –
Dihydrofolate [DHF] | – | H145 (96%), R149 (83%) | H145 (96%), R149 (83%) | Mutations H145A and R149A strongly reduced the signal; also recorded: strong effects of the mutations R92A, Y111A and R88A
RPKPQQF-OH [Substance P (1-7), Substance P (1-7) RPKPQQF-OH] | – | – | – | relatively small effects of the mutations with notable exceptions of W52A and Y111A
